Assay: xn = mol fraction of the nth substance listed
Settings: 101 kPa, Liquid, MP522 conductivity instrument

CCCC[n+]1ccccc1.O=S(=O)([N-]S(=O)(=O)C(F)(F)F)C(F)(F)F [1-butylpyridinium bis[(trifluoromethyl)sulfonyl]imide] + CC1COC(=O)O1
electrical conductivity [S/m]
Settings | 283.15 K | 293.15 K | 298.15 K | 303.15 K | 313.15 K
x1 = 0.0282 | 0.356 | 0.444 | 0.489 | 0.538 | 0.635
x1 = 0.0553 | 0.536 | 0.672 | 0.745 | 0.821 | 0.976
x1 = 0.0934 | 0.66 | 0.84 | 0.933 | 1.03 | 1.24
x1 = 0.1235 | 0.701 | 0.896 | 1 | 1.12 | 1.34
x1 = 0.1897 | 0.686 | 0.902 | 1.02 | 1.15 | 1.4
x1 = 0.269 | 0.607 | 0.821 | 0.938 | 1.07 | 1.34
x1 = 0.3709 | 0.493 | 0.692 | 0.802 | 0.927 | 1.19
x1 = 0.4666 | 0.4 | 0.58 | 0.681 | 0.798 | 1.04
x1 = 0.5668 | 0.323 | 0.483 | 0.575 | 0.679 | 0.906
x1 = 0.6944 | 0.248 | 0.386 | 0.467 | 0.561 | 0.764
x1 = 0.7943 | 0.208 | 0.33 | 0.403 | 0.489 | 0.681
x1 = 0.8591 | 0.188 | 0.3 | 0.367 | 0.448 | 0.628
x1 = 0.9208 | 0.17 | 0.275 | 0.338 | 0.415 | 0.587
x1 = 0.9715 | 0.157 | 0.256 | 0.317 | 0.392 | 0.556
x1 = 1 | 0.15 | 0.246 | 0.307 | 0.378 | 0.54

CCCC[n+]1ccccc1.O=S(=O)([N-]S(=O)(=O)C(F)(F)F)C(F)(F)F [1-butylpyridinium bis[(trifluoromethyl)sulfonyl]imide] + CC#N
electrical conductivity [S/m]
Settings | 283.15 K | 293.15 K | 298.15 K | 303.15 K | 313.15 K
x1 = 0.0379 | 3.17 | 3.52 | 3.68 | 3.85 | 4.19
x1 = 0.0652 | 3.38 | 3.77 | 3.96 | 4.16 | 4.55
x1 = 0.1114 | 3.28 | 3.72 | 3.94 | 4.18 | 4.64
x1 = 0.1566 | 2.84 | 3.3 | 3.54 | 3.78 | 4.26
x1 = 0.217 | 2.22 | 2.67 | 2.89 | 3.13 | 3.6
x1 = 0.3137 | 1.46 | 1.83 | 2.02 | 2.23 | 2.66
x1 = 0.4004 | 1.01 | 1.31 | 1.48 | 1.66 | 2.04
x1 = 0.513 | 0.653 | 0.897 | 1.03 | 1.18 | 1.5
x1 = 0.6732 | 0.371 | 0.546 | 0.647 | 0.762 | 1.01
x1 = 0.7658 | 0.282 | 0.427 | 0.512 | 0.611 | 0.83
x1 = 0.8473 | 0.223 | 0.348 | 0.424 | 0.511 | 0.708
x1 = 0.8897 | 0.2 | 0.316 | 0.388 | 0.47 | 0.657
x1 = 0.9649 | 0.167 | 0.261 | 0.33 | 0.405 | 0.576
x1 = 1 | 0.151 | 0.246 | 0.307 | 0.377 | 0.542

CCCCCC[n+]1ccccc1.O=S(=O)([N-]S(=O)(=O)C(F)(F)F)C(F)(F)F [1-hexylpyridinium bis(trifluromethylsulfonyl)imide] + CC1COC(=O)O1
electrical conductivity [S/m]
Settings | 283.15 K | 293.15 K | 298.15 K | 303.15 K | 313.15 K
x1 = 0.0128 | 0.184 | 0.226 | 0.249 | 0.275 | 0.324
x1 = 0.0186 | 0.243 | 0.303 | 0.334 | 0.367 | 0.435
x1 = 0.0321 | 0.354 | 0.445 | 0.489 | 0.539 | 0.641
x1 = 0.0545 | 0.472 | 0.597 | 0.661 | 0.731 | 0.874
x1 = 0.0693 | 0.519 | 0.66 | 0.733 | 0.814 | 0.976
x1 = 0.1001 | 0.567 | 0.729 | 0.815 | 0.911 | 1.1
x1 = 0.1332 | 0.574 | 0.749 | 0.841 | 0.944 | 1.16
x1 = 0.1806 | 0.539 | 0.72 | 0.817 | 0.925 | 1.15
x1 = 0.2489 | 0.463 | 0.636 | 0.73 | 0.838 | 1.06
x1 = 0.334 | 0.366 | 0.522 | 0.609 | 0.708 | 0.918
x1 = 0.4547 | 0.256 | 0.384 | 0.458 | 0.542 | 0.725
x1 = 0.5693 | 0.19 | 0.294 | 0.358 | 0.43 | 0.589
x1 = 0.7043 | 0.136 | 0.218 | 0.27 | 0.332 | 0.47
x1 = 0.8506 | 0.0986 | 0.167 | 0.208 | 0.258 | 0.377
x1 = 0.9425 | 0.0826 | 0.141 | 0.179 | 0.223 | 0.332
x1 = 1 | 0.0737 | 0.129 | 0.163 | 0.205 | 0.306

CCCCCC[n+]1ccccc1.O=S(=O)([N-]S(=O)(=O)C(F)(F)F)C(F)(F)F [1-hexylpyridinium bis(trifluromethylsulfonyl)imide] + CC#N
electrical conductivity [S/m]
Settings | 283.15 K | 293.15 K | 298.15 K | 303.15 K | 313.15 K
x1 = 0.0432 | 2.75 | 3.05 | 3.2 | 3.35 | 3.65
x1 = 0.0703 | 2.91 | 3.28 | 3.46 | 3.65 | 4.01
x1 = 0.0883 | 2.83 | 3.22 | 3.42 | 3.61 | 4
x1 = 0.1355 | 2.37 | 2.77 | 2.98 | 3.19 | 3.61
x1 = 0.2056 | 1.64 | 2 | 2.19 | 2.39 | 2.81
x1 = 0.2534 | 1.27 | 1.59 | 1.77 | 2 | 2.38
x1 = 0.332 | 0.886 | 1.16 | 1.3 | 1.46 | 1.79
x1 = 0.4498 | 0.503 | 0.702 | 0.811 | 0.935 | 1.2
x1 = 0.5297 | 0.351 | 0.51 | 0.599 | 0.702 | 0.924
x1 = 0.6276 | 0.239 | 0.362 | 0.437 | 0.518 | 0.704
x1 = 0.8155 | 0.128 | 0.207 | 0.256 | 0.316 | 0.452
x1 = 0.9205 | 0.0936 | 0.157 | 0.197 | 0.245 | 0.358
x1 = 1 | 0.0737 | 0.128 | 0.163 | 0.205 | 0.306

Reference: the NIST ThermoML archive (doi:10.1021/je200616t)
